Read-outs that look alike come from different tables or passages of the source.
Columns and labels:
HIV-1 = assay: microbe, parasite or virus in culture; conditions: read-out: HIV1 CEM: EC50 for inhibition of HIV-1 in CEM cells
Description: (§1) Cells were infected with HIV-1 as previously described [Balzarini et al. AIDS (1991), 5, 21–28]. Briefly, 5×10^5 cells per milliliter were infected with HIV-1 or HIV-2 at 100 CCID50 (50% cell culture infective dose) per milliliter of cell suspension. Then 100 μL of the infected cell suspension was transferred to microtiter plate wells and mixed with 100 μL of the appropriate dilutions of the test compounds. After 4 days giant cell formation was recorded microscopically in the HIV-infected cell cultures [CEM], and after 5 days the number of viable cells was determined by trypan blue staining of the HIV-infected cell cultures [MT4].
(§2) The data columns are, in order: • HIV1 MT4: EC50 in μM for inhibition of HIV-1 in MT4 cells. • HIV2 MT4: EC50 in μM for inhibition of HIV-2 in MT4 cells. • CC50 MT4: CC50 in μM for toxicity to MT-4 cells. • HIV1 CEM: EC50 in μM for inhibition of HIV-1 in CEM cells. • HIV2 CEM: EC50 in μM for inhibition of HIV-2 in CEM cells. • HIV2 CEM-TK-: EC50 in μM for inhibition of HIV-2 in CEM/TK^− cells. • CC50 CEM: CC50 in μM for toxicity to CEM cells. • EC50 MSV: EC50 in μM for inhibition of MSV • MCC MSV: Minimum cytotoxic concentration in MSV assay

HIV-2 [1] = assay: Inhibition of HIV-2 in CEM cells (giant cell formation); type: cell-based; conditions: read-out: HIV2 CEM: EC50 for inhibition of HIV-2 in CEM cells
Description: as §1, §2

HIV-2 [2] = assay: Inhibition of HIV-2 in CEM/TK- cells; type: cell-based
Description: as §1, §2

CEM cells = assay: Toxicity to CEM cells; type: cell-based, human
Description: as §1, §2

[3] = Table 6, mean of two or more repeat experiments
[4] = Table 6, mean of two or more repeat experiments, read-out: HIV2 CEM-TK-: EC50 for inhibition of HIV-2 in CEM/TK^− cells
[5] = CEM/TK- cells, HIV-2, read-out: HIV2 CEM-TK-: EC50 for inhibition of HIV-2 in CEM/TK- cells

Row | SMILES | EC50 (HIV-1; [3]) | EC50 (HIV-2 [1]; [3]) | EC50 (HIV-2 [2]; [4]) | CC50 (CEM cells; [3]) | EC50 (HIV-1; CEM cells, HIV-1) | EC50 (HIV-2 [1]; CEM cells, HIV-2) | EC50 (HIV-2 [2]; [5]) | CC50 (CEM cells; CEM cells)
1 | CCCCCCOP(=O)(OCCCCCC)OCC1C=CC(n2cc(C)c(=O)[nH]c2=O)O1 (stereo not drawn) [Compound 321] | > 42 µM | > 42 µM | > 42 µM | 36 µM | – | – | – | –
2 | Cc1cn([C@H]2C=C[C@@H](COP(=O)(O)O)O2)c(=O)[nH]c1=O [Compound 775] | 0.8 µM | 0.95 µM | 33 µM | 174 µM | – | – | – | –
3 | CCCCCCO[PH](=O)OCC1C=CC(n2cc(C)c(=O)[nH]c2=O)O1 (stereo not drawn) [Compound 786] | 0.6 µM | 0.5 µM | 30 µM | 150 µM | – | – | – | –
4 | COCCOCCO[PH](=O)OCC1C=CC(n2cc(C)c(=O)[nH]c2=O)O1 (stereo not drawn) [Compound 787] | 0.65 µM | 0.95 µM | 45 µM | 144 µM | – | – | – | –
5 | CCO[PH](=O)OCC1C=CC(n2cc(C)c(=O)[nH]c2=O)O1 (stereo not drawn) [Compound 788] | 0.65 µM | 0.6 µM | 30 µM | 115 µM | – | – | – | –
6 | CCCCCCCCCCO[PH](=O)OCC1C=CC(n2cc(C)c(=O)[nH]c2=O)O1 (stereo not drawn) [Compound 789] | – | 0.65 µM | 40 µM | 64 µM | – | – | – | –
7 | CCCCO[PH](=O)OCC1C=CC(n2cc(C)c(=O)[nH]c2=O)O1 (stereo not drawn) [Compound 790] | 0.65 µM | 0.9 µM | 30 µM | 177 µM | – | – | – | –
8 | CCCCCCCCO[PH](=O)OCC1C=CC(n2cc(C)c(=O)[nH]c2=O)O1 (stereo not drawn) [Compound 791] | 0.4 µM | 0.6 µM | 23 µM | 90 µM | – | – | – | –
9 | CO[PH](=O)OCC1C=CC(n2cc(C)c(=O)[nH]c2=O)O1 (stereo not drawn) [Compound 817] | 0.7 µM | 0.55 µM | 20 µM | 146 µM | – | – | – | –
10 | CCCCCCCCCCCCNP(=O)(OCC1C=CC(n2cc(C)c(=O)[nH]c2=O)O1)Oc1ccccc1 (stereo not drawn) [Compound 828] | > 10 µM | > 10 µM | – | 14 µM | – | – | – | –
11 | CCCCCCCCNP(=O)(OCC1C=CC(n2cc(C)c(=O)[nH]c2=O)O1)Oc1ccccc1 (stereo not drawn) [Compound 829] | > 10 µM | ≥ 10 µM | – | 23 µM | – | – | – | –
12 | CCCCNP(=O)(OCC1C=CC(n2cc(C)c(=O)[nH]c2=O)O1)Oc1ccccc1 (stereo not drawn) [Compound 840] | 140 µM | 100 µM | 125 µM | > 250 µM | – | – | – | –
13 | CC(NP(=O)(OCC1C=CC(n2ccc(=O)[nH]c2=O)O1)Oc1ccccc1)C(=O)OCc1ccccc1 (stereo not drawn) [Compound 849] | 23 µM | 15 µM | 10 µM | 115 µM | – | – | – | –
14 | Cc1cn(C2C=CC(COP(=O)(O)Oc3ccccc3)O2)c(=O)[nH]c1=O (stereo not drawn) [Compound 853] | 0.65 µM | 0.7 µM | 23 µM | 153 µM | – | – | – | –
15 | CCCNP(=O)(OCC1C=CC(n2cc(C)c(=O)[nH]c2=O)O1)Oc1ccccc1 (stereo not drawn) [Compound 858] | > 250 µM | > 250 µM | > 250 µM | > 250 µM | – | – | – | –
16 | CCCCCCNP(=O)(OCC1C=CC(n2cc(C)c(=O)[nH]c2=O)O1)Oc1ccccc1 (stereo not drawn) [Compound 859] | > 50 µM | > 50 µM | > 50 µM | 145 µM | – | – | – | –
17 | Cc1cn(C2C=CC(COP(=O)(OCCC#N)Oc3ccccc3)O2)c(=O)[nH]c1=O (stereo not drawn) [Compound 861] | 1.2 µM | 0.95 µM | 17.5 µM | ≥ 250 µM | – | – | – | –

Row | SMILES | EC50 (HIV-1; [3]) | EC50 (HIV-2 [1]; [3]) | EC50 (HIV-2 [2]; [4]) | CC50 (CEM cells; [3]) | EC50 (HIV-1; CEM cells, HIV-1) | EC50 (HIV-2 [1]; CEM cells, HIV-2) | EC50 (HIV-2 [2]; [5]) | CC50 (CEM cells; CEM cells)
18 | COC(=O)C1CCCN1P(=O)(OCC1C=CC(n2cc(C)c(=O)[nH]c2=O)O1)Oc1ccccc1 (stereo not drawn) [Compound 879] | > 10 µM | > 10 µM | > 10 µM | 42.5 µM | – | – | – | –
19 | Cc1cn(C2C=CC(COP(=O)(Oc3ccccc3)Oc3ccccc3)O2)c(=O)[nH]c1=O (stereo not drawn) [Compound 880] | – | 25 µM | 75 µM | ≥ 250 µM | – | – | – | –
20 | Cc1cn([C@H]2C=C[C@@H](COP(=O)(O)NCC(=O)O)O2)c(=O)[nH]c1=O [Compound 1163, 2′,3′-dideoxy-2′,3′-didehydrothymidine 5′-(glycinyl phosphate)] | 2 µM | 5 µM | 130 µM | > 250 µM | – | – | – | –
21 | [N-]=[N+]=NC1CC(n2ccc(=O)[nH]c2=O)OC1CO (stereo not drawn) [Cpd 569] | – | – | – | – | > 400 µM | > 400 µM | > 400 µM | –
22 | COC(=O)C(C)NP(=O)(OCC1OC(n2ccc(=O)[nH]c2=O)CC1N=[N+]=[N-])Oc1ccccc1 (stereo not drawn) [Cpd 571] | – | – | – | – | > 202 µM | > 202 µM | 117 µM | –
23 | CCCCCCNP(=O)(OCC1OC(n2cc(C)c(=O)[nH]c2=O)CC1N=[N+]=[N-])Oc1ccccc1 (stereo not drawn) [Cpd 657] | – | – | – | – | > 40 µM | > 40 µM | > 18 µM | –
24 | CCCCNP(=O)(OCC1OC(n2cc(C)c(=O)[nH]c2=O)CC1N=[N+]=[N-])Oc1ccccc1 (stereo not drawn) [Cpd 659] | – | – | – | – | > 42 µM | > 42 µM | > 42 µM | –
25 | CCCCCCCCCCCCNP(=O)(OCC1OC(n2cc(C)c(=O)[nH]c2=O)CC1N=[N+]=[N-])Oc1ccccc1 (stereo not drawn) [Cpd 661] | – | – | – | – | > 7 µM | > 7 µM | > 7 µM | –
26 | COC(=O)C(C)NP(=O)(OC)OCC1OC(n2cc(C)c(=O)[nH]c2=O)CC1N=[N+]=[N-] (stereo not drawn) [Cpd 739] | – | – | – | – | 10 µM | 18 µM | > 250 µM | > 250 µM
27 | CCCCCCCCn1c(=O)c(C)cn(C2CC(N=[N+]=[N-])C(COP(=O)(NC(C)C(=O)OC)Oc3ccccc3)O2)c1=O (stereo not drawn) [Cpd 774] | – | – | – | – | > 10 µM | > 10 µM | – | 15 µM
28 | COC(=O)C(C)NP(=O)(OCC1OC(n2cc(C)c(=O)[nH]c2=O)CC1N=[N+]=[N-])Oc1ccc(Br)cc1Br (stereo not drawn) [Cpd 777] | – | – | – | – | 0.5 µM | 0.55 µM | 0.19 µM | 55 µM
29 | COC(=O)C(C)NP(=O)(OCC1OC(n2cc(C)c(=O)[nH]c2=O)CC1N=[N+]=[N-])Oc1c(F)c(F)c(F)c(F)c1F (stereo not drawn) [Cpd 780] | – | – | – | – | 23 µM | 33 µM | 100 µM | 106 µM
30 | Cc1cn(C2CC(N=[N+]=[N-])C(COP(=O)(OCCC#N)Oc3ccccc3)O2)c(=O)[nH]c1=O (stereo not drawn) [Cpd 846] | – | – | – | – | 13 µM | 14 µM | > 250 µM | > 250 µM
31 | Cc1cn(C2CC(N=[N+]=[N-])C(COP(=O)(OCCC#N)OCC(F)(F)F)O2)c(=O)[nH]c1=O (stereo not drawn) [Cpd 847] | – | – | – | – | 12 µM | 9 µM | > 250 µM | > 250 µM
32 | Cc1cn(C2CC(N=[N+]=[N-])C(COP(=O)(O)OCC(F)(F)F)O2)c(=O)[nH]c1=O (stereo not drawn) [Cpd 855] | – | – | – | – | 17.5 µM | 17.5 µM | > 250 µM | > 250 µM
33 | CCCCCCOP(=O)(OCCC#N)OCC1OC(n2cc(C)c(=O)[nH]c2=O)CC1N=[N+]=[N-] (stereo not drawn) [Cpd 856] | – | – | – | – | 13 µM | 25 µM | > 250 µM | > 250 µM
34 | CCCCCCOP(=O)(O)OCC1OC(n2cc(C)c(=O)[nH]c2=O)CC1N=[N+]=[N-] (stereo not drawn) [Cpd 857] | – | – | – | – | 5 µM | 10 µM | > 250 µM | > 250 µM

Source: patent publication US7018989B2, “Chemical compounds” (University College Cardiff Consultants, LTD, priority 1995, dated 2006)
